# System: Abutilon theophrasti
# Assay: Herbicidal activity against Abutilon theophrasti
# Assay type: functional
row,Structure (SMILES),ED85
1,C#CCn1c(=O)ccc2cc(F)c(-n3c(=O)cc(C(F)(F)F)n(C)c3=O)cc21,1 g/ha
2,CC(C)Cn1c(=O)ccc2cc(F)c(-n3c(=O)cc(C(F)(F)F)n(C)c3=O)cc21,10 g/ha
3,CCCn1c(=O)ccc2cc(F)c(-n3c(=O)cc(C(F)(F)F)n(C)c3=O)cc21,10 g/ha
4,COC(=O)Cn1c(=O)ccc2cc(F)c(-n3c(=O)cc(C(F)(F)F)n(C)c3=O)cc21,10 g/ha
5,C=CCn1c(=O)ccc2cc(F)c(-n3c(=O)cc(C(F)(F)F)n(C)c3=O)cc21,1 g/ha
6,Cn1c(C(F)(F)F)cc(=O)n(-c2cc3c(ccc(=O)n3CC#N)cc2F)c1=O,10 g/ha
7,Cn1c(C(F)(F)F)cc(=O)n(-c2cc3[nH]c(=O)ccc3cc2F)c1=O,30 g/ha
8,CCn1c(=O)ccc2cc(F)c(-n3c(=O)cc(C(F)(F)F)n(C)c3=O)cc21,3 g/ha
9,Cn1c(C(F)(F)F)cc(=O)n(-c2cc3c(ccc(=O)n3C)cc2F)c1=O,10 g/ha

# System: Ipomoea purpurea
# Assay: Herbicidal activity against Ipomoea purpurea
# Assay type: functional
row,Structure (SMILES),ED85
1,C#CCn1c(=O)ccc2cc(F)c(-n3c(=O)cc(C(F)(F)F)n(C)c3=O)cc21,3 g/ha
2,CC(C)Cn1c(=O)ccc2cc(F)c(-n3c(=O)cc(C(F)(F)F)n(C)c3=O)cc21,30 g/ha
3,CCCn1c(=O)ccc2cc(F)c(-n3c(=O)cc(C(F)(F)F)n(C)c3=O)cc21,30 g/ha
4,COC(=O)Cn1c(=O)ccc2cc(F)c(-n3c(=O)cc(C(F)(F)F)n(C)c3=O)cc21,100 g/ha
5,C=CCn1c(=O)ccc2cc(F)c(-n3c(=O)cc(C(F)(F)F)n(C)c3=O)cc21,3 g/ha
6,Cn1c(C(F)(F)F)cc(=O)n(-c2cc3c(ccc(=O)n3CC#N)cc2F)c1=O,30 g/ha
7,Cn1c(C(F)(F)F)cc(=O)n(-c2cc3[nH]c(=O)ccc3cc2F)c1=O,30 g/ha
8,CCn1c(=O)ccc2cc(F)c(-n3c(=O)cc(C(F)(F)F)n(C)c3=O)cc21,10 g/ha
9,Cn1c(C(F)(F)F)cc(=O)n(-c2cc3c(ccc(=O)n3C)cc2F)c1=O,10 g/ha

# System: Phytophthora infestans
# Assay: Antioomycetic activity against Phytophthora infestans
# Assay type: functional
row,Structure (SMILES),EC80
1,C#CCOc1ccc(CCNC(=O)C(OC(C)(C)C#C)c2ccc(Cl)cc2)cc1OC (centres undefined),4.9 µg/mL
2,C#CCOc1ccc(CCNC(=O)C(OCC#CC)c2ccc(Cl)cc2)cc1OC (centres undefined),18.3 µg/mL
3,C#CCOc1ccc(CCNC(=O)C(OCC#C)c2ccc(Cl)cc2)cc1OC (centres undefined) [MANDIPROPAMID],0.1 µg/mL
4,C#CCOc1ccc(CCNC(=O)C(OC(C)C)c2ccc(Cl)cc2)cc1OC (centres undefined),3.1 µg/mL
5,C#CCOc1ccc(CCNC(=O)C(O)c2ccc(Cl)cc2)cc1OC (centres undefined),34.6 µg/mL
6,C#CCOc1ccc(CCNC(=O)C(OC(=O)OC)c2ccc(Cl)cc2)cc1OC (centres undefined),38.6 µg/mL
7,C#CCOc1ccc(CCNC(=O)C(OCCC)c2ccc(Cl)cc2)cc1OC (centres undefined),5.4 µg/mL
8,C#CCOc1ccc(CCNC(=O)C(OC)c2ccc(Cl)cc2)cc1OC (centres undefined),9.7 µg/mL
9,C#CCOc1ccc(CCNC(=O)C(OCC)c2ccc(Cl)cc2)cc1OC (centres undefined),4.6 µg/mL
10,C#CCOc1ccc(CCNC(=O)C(OCC=C)c2ccc(Cl)cc2)cc1OC (centres undefined),44.1 µg/mL
11,C#CCOc1ccc(CCNC(=O)C(OCCF)c2ccc(Cl)cc2)cc1OC (centres undefined),4.7 µg/mL
12,C#CCOc1ccc(CCNC(=O)C(OC(=O)CC)c2ccc(Cl)cc2)cc1OC (centres undefined),4.2 µg/mL
13,C#CCOc1ccc(CCNC(=O)C(OC(=O)CC#N)c2ccc(Cl)cc2)cc1OC (centres undefined),3.1 µg/mL

# System: Plasmopara viticola
# Assay: Antioomycetic activity against Plasmopara viticola
# Assay type: functional
row,Structure (SMILES),EC80
1,C#CCOc1ccc(CCNC(=O)C(OC(C)(C)C#C)c2ccc(Cl)cc2)cc1OC (centres undefined),3.5 µg/mL
2,C#CCOc1ccc(CCNC(=O)C(OCC#CC)c2ccc(Cl)cc2)cc1OC (centres undefined),14 µg/mL
3,C#CCOc1ccc(CCNC(=O)C(OCC#C)c2ccc(Cl)cc2)cc1OC (centres undefined) [MANDIPROPAMID],1.2 µg/mL
4,C#CCOc1ccc(CCNC(=O)C(OC(C)C)c2ccc(Cl)cc2)cc1OC (centres undefined),10.1 µg/mL
5,C#CCOc1ccc(CCNC(=O)C(O)c2ccc(Cl)cc2)cc1OC (centres undefined),10.4 µg/mL
6,C#CCOc1ccc(CCNC(=O)C(OC(=O)OC)c2ccc(Cl)cc2)cc1OC (centres undefined),110 µg/mL
7,C#CCOc1ccc(CCNC(=O)C(OCCC)c2ccc(Cl)cc2)cc1OC (centres undefined),31 µg/mL
8,C#CCOc1ccc(CCNC(=O)C(OC)c2ccc(Cl)cc2)cc1OC (centres undefined),3.5 µg/mL
9,C#CCOc1ccc(CCNC(=O)C(OCC)c2ccc(Cl)cc2)cc1OC (centres undefined),2 µg/mL
10,C#CCOc1ccc(CCNC(=O)C(OCC=C)c2ccc(Cl)cc2)cc1OC (centres undefined),18.6 µg/mL
11,C#CCOc1ccc(CCNC(=O)C(OCCF)c2ccc(Cl)cc2)cc1OC (centres undefined),8.9 µg/mL
12,C#CCOc1ccc(CCNC(=O)C(OC(=O)CC)c2ccc(Cl)cc2)cc1OC (centres undefined),2.8 µg/mL
13,C#CCOc1ccc(CCNC(=O)C(OC(=O)CC#N)c2ccc(Cl)cc2)cc1OC (centres undefined),4.9 µg/mL

# From ChEMBL document CHEMBL1158365, “Alkyne chemistry in crop protection” (2009)
